Values quoted from earlier work in patent publication US20240335414A1, “SPECIALIZED COMBINATIONS FOR MENTAL DISORDERS OR MENTAL ENHANCEMENT” (TACTOGEN INC, priority 2021, published 2024).

Tests used:
[1] = MDMA arm, first of two Phase 3 trials, MDMA-assisted therapy
[2] = pooled Phase 2 clinical trials
5-HT1B = 5-HT1B (Homo sapiens, UniProt P28222)
Chain of 5-HT1B (P28222 whole entry, species assumed): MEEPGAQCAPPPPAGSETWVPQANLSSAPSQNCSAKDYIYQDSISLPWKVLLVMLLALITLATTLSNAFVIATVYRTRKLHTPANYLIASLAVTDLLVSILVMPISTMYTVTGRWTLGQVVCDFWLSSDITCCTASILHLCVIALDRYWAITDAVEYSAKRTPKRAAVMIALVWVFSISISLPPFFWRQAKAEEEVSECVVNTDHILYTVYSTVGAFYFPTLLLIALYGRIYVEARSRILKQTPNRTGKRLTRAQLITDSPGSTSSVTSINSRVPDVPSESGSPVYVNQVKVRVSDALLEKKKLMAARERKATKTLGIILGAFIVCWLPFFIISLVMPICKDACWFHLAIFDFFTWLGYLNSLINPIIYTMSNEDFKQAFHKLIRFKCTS

For `CNC(C)Cc1ccc2c(c1)OCO2` (stereo not drawn) [MDMA, 3,4-methylenedioxymethamphetamine], the “participants no longer diagnosable with PTSD” value [1] is given as “two-thirds”, the “nausea, proportion of participants” value ([2]; 29 of 72 participants) is given as 40.3% and the “anxiety, proportion of participants” value ([2]; 52 of 72 participants) is given as 72.2%. For the same compound, the “binding to the 5-HT1B” value (5-HT1B) was “does not bind”, the EC50 (neuritogenesis; read-out: EC50 for promoting neuritogenesis) was 7.41 nM and the “Emax for promoting neuritogenesis, compared with ketamine” value (neuritogenesis; relative to ketamine) was “approximately twice that of ketamine”.
